Experimental data: paper PMC12029836, “Phytotoxicity, Cytotoxicity, and Antimicrobial Activity of Triethanolammonium Amino Acids Salts” (Molecules, 2025)
Several values for one entry are separate records, joined by “and”; a condition that tells them apart may be missing. Equal entries are not always repeated. Where two headings read alike, the source gives them in different places.

How the values were obtained:
CaCo-2 = test system: CaCo-2; set-up: method as in doi:10.1039/C4TX00079J; conditions: CaCo-2 ref 39; cited from earlier work
NIH/3T3 = test system: NIH/3T3; set-up: method as in doi:10.1039/C4TX00079J; conditions: NIH/3T3 ref 39; cited from earlier work
cress [1] = test system: cress; set-up: method as in doi:10.1134/S0036023620090089; conditions: cited from earlier work
cress [2] = test system: cress; set-up: method as in PMID 19052732; conditions: cress seed, highest concentration of 1000 mg L^−1 ref 17; cited from earlier work
[3] = set-up: method as in PMID 28665154; conditions: cited from earlier work
E. coli = test system: E. coli; set-up: method as in doi:10.3139/113.110524; conditions: E. coli ref 49; cited from earlier work
[4] = test system: 3T3 cell (mouse embryonic fibroblasts); conditions: cited from earlier work
L929 fibroblasts = assay: Mammalian cell cytotoxicity screening, resazurin viability; type: cell-based, mouse
S. aureus ATCC 6538 = assay: Antimicrobial activity, broth microdilution MIC/MBC; type: cell-based, Staphylococcus aureus; conditions: S. aureus ATCC 6538, 24 h at 37 °C, at least 90% growth inhibition; nd—not detected
E. coli ATCC 8739 = assay: as above; type: cell-based, Escherichia coli; conditions: nd—not detected; for MIC (%): E. coli ATCC 8739, 24 h at 37 °C, at least 90% growth inhibition; for MBC (%): E. coli ATCC 8739
C. albicans ATCC 10231 = assay: as above; type: cell-based, Candida albicans; conditions: nd—not detected; for MIC (%): C. albicans ATCC 10231, 24 h at 37 °C, at least 90% growth inhibition
[5] = test system: Lepidium sativum L. seeds; conditions: 24 h incubation, mean(±SD), n = 3
[6] = test system: Lepidium sativum L. roots; conditions: 24 h incubation, mean(±SD), n = 3
[7] = 0.01% (w/w) compound in the medium
[8] = 0.03% (w/w) compound in the medium
[9] = 0.05% (w/w) compound in the medium
[10] = 0.10% (w/w) compound in the medium
[11] = 0.30% (w/w) compound in the medium
[12] = 0.50% (w/w) compound in the medium
[13] = 1.00% (w/w) compound in the medium
[14] = 2.00% (w/w) compound in the medium
[15] = 3.00% (w/w) compound in the medium
[16] = 4.00% (w/w) compound in the medium
[17] = 5.00% (w/w) compound in the medium

In the case of CCCCn1cc[n+](C)c1.C[C@H](N)C(=O)[O-] [[BMIM][Ala]], the IC50 (CaCo-2) is listed as 19.3 mM and the IC50 (NIH/3T3) is listed as 30.2 mM.

In the case of O=C(O)c1ccccc1O.OCCN(CCO)CCO [TEA salicylate], the “effect on root and shoot length” value (cress [1]; 0.03 mg L^−1 ref 12) is listed as “significant inhibition effect”.

In the case of CCCCn1cc[n+](C)c1 [[BMIM][PF6]], the IC50 (CaCo-2) is given as 11.5 mM.

For CCCCCCn1cc[n+](C)c1.[Cl-] [[HMIM][Cl]], the decrease in germination (cress [2]) is given as 100%.

In the case of C[N+](C)(C)CCO.NC(Cc1ccccc1)C(=O)[O-] (stereo not drawn) [[Cho][Phe]], the IC50 [3] is listed as 0.42 % (v/v).

For benzalkonium chloride, the MIC (E. coli) is given as 15 µg/mL.

In the case of C[N+](C)(C)CCO.NCC(=O)[O-] [[Cho][Gly]], the Cell viability [4] is listed as “over 90%”.

For CCCCn1cc[n+](C)c1 [[BMIM][BF4]], the IC50 (CaCo-2) is listed as 11.2 mM and the IC50 (NIH/3T3) is listed as 11.3 mM.

In the case of O=C(O)C=Cc1ccccc1.OCCN(CCO)CCO [TEA salt of cinnamic acid], the “effect on cress seed germination and root growth” value (cress [1]; 0.003 and 0.03 mg L^−1 ref 12) is listed as “most visible stimulation”.

In the case of CCCCn1cc[n+](C)c1 [[BMIM][(L)-Lac]], the IC50 (CaCo-2) is listed as 19.2 mM and the IC50 (NIH/3T3) is listed as 33.6 mM.

For NCC(=O)O [[Cho][Gly]], the IC50 ([4]; 3T3 cells, 48 h, printed also as (1%) ref 34) is listed as about 55 mM.

In the case of CCn1cc[n+](C)c1.[Cl-] [[EMIM][Cl]], the decrease in germination (cress [2]) is listed as 85%.

Molecule CC(N)C(=O)O.OCCN(CCO)CCO [[TEA][Ala]] has an ED20 (L929 fibroblasts; 24h exposure) of 0.54±0.06%, an ED50 (L929 fibroblasts; 24h exposure) of 0.57±0.04% and an ED80 (L929 fibroblasts; 24h exposure) of 0.59±0.11%. For the same molecule, the ED20 (L929 fibroblasts; 48h exposure) was 0.25±0.03%, the ED50 (L929 fibroblasts; 48h exposure) was 0.42±0.02% and the ED80 (L929 fibroblasts; 48h exposure) was 0.63±0.03%. The “MIC (%)” value (S. aureus ATCC 6538) was 7.50%, the “MIC (%)” value (E. coli ATCC 8739) was 3.75% and the “MBC (%)” value (E. coli ATCC 8739) was 7.50%. The “MIC (%)” value (C. albicans ATCC 10231) was 1.88%, the “Inhibition of the Lepidium sativum seeds germination (ISG, %)” value (“Inhibition … (ISG, %)” below) [5, 7] was 0.0(±1.2) % and the “Inhibition … (ISG, %)” value [5, 8] was 0.0(±0.8) %. The “Inhibition … (ISG, %)” value [5, 9] was 0.0(±1.2) %, the “Inhibition … (ISG, %)” value [5, 10] was 0.0(±0.8) % and the “Inhibition … (ISG, %)” value [5, 11] was 0.0(±0.5) %. The “Inhibition … (ISG, %)” value [5, 12] was 9.4(±1.4) %, the “Inhibition … (ISG, %)” value [5, 13] was 11.8(±1.6) % and the “Inhibition … (ISG, %)” value [5, 14] was 17.7(±0.8) %. For the same molecule, the “Inhibition … (ISG, %)” value [5, 15] was 64.7(±0.8) %, the “Inhibition … (ISG, %)” value [5, 16] was 88.3(±1.3) % and the “Inhibition … (ISG, %)” value [5, 17] was 100.0(±0.5) %. The “Inhibition of the root growth in pregerminated Lepidium sativum seeds (IRG, %)” value (“Inhibition of the root growth … (IRG, %)” below) [6, 7] was 0.0(±0.0) %, the “Inhibition of the root growth … (IRG, %)” value [6, 8] was 0.0(±0.0) % and the “Inhibition of the root growth … (IRG, %)” value [6, 9] was 14.8(±1.5) %. The “Inhibition of the root growth … (IRG, %)” value [6, 10] was 19.7(±1.4) %, the “Inhibition of the root growth … (IRG, %)” value [6, 11] was 27.9(±1.2) % and the “Inhibition of the root growth … (IRG, %)” value [6, 12] was 36.1(±1.2) %. For the same molecule, the “Inhibition of the root growth … (IRG, %)” value [6, 13] was 55.2(±0.8) %, the “Inhibition of the root growth … (IRG, %)” value [6, 14] was 67.2(±1.0) % and the “Inhibition of the root growth … (IRG, %)” value [6, 15] was 77.6(±0.6) %. For the same molecule, the “Inhibition of the root growth … (IRG, %)” value [6, 16] was 79.3(±0.6) % and the “Inhibition of the root growth … (IRG, %)” value [6, 17] was 89.7(±0.5) %.

With N[C@@H](CC(=O)O)C(=O)O.OCCN(CCO)CCO [[TEA][Asp]] the ED20 (L929 fibroblasts; 24h exposure) was 0.47±0.03%, the ED50 (L929 fibroblasts; 24h exposure) was 0.66±0.03% and the ED80 (L929 fibroblasts; 24h exposure) was 0.86±0.09%. It also gave an ED20 (L929 fibroblasts; 48h exposure) of 0.30±0.02%, an ED50 (L929 fibroblasts; 48h exposure) of 0.50±0.01% and an ED80 (L929 fibroblasts; 48h exposure) of 0.71±0.01%. For the same molecule, the “MIC (%)” value (S. aureus ATCC 6538) was 15%, the “MIC (%)” value (E. coli ATCC 8739) was 7.50% and the “MBC (%)” value (E. coli ATCC 8739) was 15%. The “MIC (%)” value (C. albicans ATCC 10231) was 15%, the “MBC (%)” value (C. albicans ATCC 10231; C. albicans ATCC 10231) was 15% and the “Inhibition … (ISG, %)” value [5, 7] was 0.0(±0.0) %. For the same molecule, the “Inhibition … (ISG, %)” value [5, 8] was 0.0(±0.0) %, the “Inhibition … (ISG, %)” value [5, 9] was 0.0(±0.0) % and the “Inhibition … (ISG, %)” value [5, 10] was 0.0(±0.0) %. For the same molecule, the “Inhibition … (ISG, %)” value [5, 11] was 0.0(±0.0) %, the “Inhibition … (ISG, %)” value [5, 12] was 0.0(±0.0) % and the “Inhibition … (ISG, %)” value [5, 13] was 0.0(±0.0) %. For the same molecule, the “Inhibition … (ISG, %)” value [5, 14] was 0.0(±0.0) %, the “Inhibition … (ISG, %)” value [5, 15] was 3.5% and the “Inhibition … (ISG, %)” value [5, 16] was 16.2(±1.3) %. For the same molecule, the “Inhibition of the root growth … (IRG, %)” value [6, 7] was 0.0(±0.0) % and 0%, the “Inhibition of the root growth … (IRG, %)” value [6, 8] was 0.0(±0.0) % and 0% and the “Inhibition of the root growth … (IRG, %)” value [6, 9] was 0.0(±0.0) % and 0%. The “Inhibition of the root growth … (IRG, %)” value [6, 10] was 0.0(±0.0) % and 0%, the “Inhibition of the root growth … (IRG, %)” value [6, 11] was 9.1% and the “Inhibition of the root growth … (IRG, %)” value [6, 12] was 12.9%. The “Inhibition of the root growth … (IRG, %)” value [6, 14] was 43.9(±1.3) %, the “Inhibition of the root growth … (IRG, %)” value [6, 15] was 44.2(±1.0) % and the “Inhibition of the root growth … (IRG, %)” value [6, 16] was 56.3(±1.0) %. The “Inhibition of the root growth … (IRG, %)” value [6, 17] was 68.3%.

O=C(O)[C@@H]1CCCN1.OCCN(CCO)CCO [[TEA][Pro]] gave an ED20 (L929 fibroblasts; 24h exposure) of 0.32±0.05%, an ED50 (L929 fibroblasts; 24h exposure) of 0.56±0.04% and an ED80 (L929 fibroblasts; 24h exposure) of 0.86±0.14%. For the same molecule, the ED20 (L929 fibroblasts; 48h exposure) was 0.35±0.04%, the ED50 (L929 fibroblasts; 48h exposure) was 0.64±0.04% and the ED80 (L929 fibroblasts; 48h exposure) was 1.00±0.13%. The “MIC (%)” value (S. aureus ATCC 6538) was 7.50%, the “MIC (%)” value (E. coli ATCC 8739) was 7.50% and the “MBC (%)” value (E. coli ATCC 8739) was 7.50%. The “MIC (%)” value (C. albicans ATCC 10231) was 7.50%, the “Inhibition … (ISG, %)” value [5, 7] was 3.7(±0.5) % and the “Inhibition … (ISG, %)” value [5, 8] was 6.5(±0.5) %. For the same molecule, the “Inhibition … (ISG, %)” value [5, 9] was 9.3(±0.5) %, the “Inhibition … (ISG, %)” value [5, 10] was 16.7(±0.8) % and the “Inhibition … (ISG, %)” value [5, 11] was 18.5(±0.5) %. The “Inhibition … (ISG, %)” value [5, 12] was 20.4(±1.3) %, the “Inhibition … (ISG, %)” value [5, 13] was 25.9(±1.3) % and the “Inhibition … (ISG, %)” value [5, 14] was 29.6(±0.9) %. The “Inhibition … (ISG, %)” value [5, 15] was 40.7(±0.5) %, the “Inhibition … (ISG, %)” value [5, 16] was 51.9(±0.5) % and the “Inhibition … (ISG, %)” value [5, 17] was 79.6(±0.5) %. The “Inhibition of the root growth … (IRG, %)” value [6, 7] was 0.0(±0.0) %, the “Inhibition of the root growth … (IRG, %)” value [6, 8] was 20.7(±2.1) % and the “Inhibition of the root growth … (IRG, %)” value [6, 9] was 27.3(±2.2) %. The “Inhibition of the root growth … (IRG, %)” value [6, 10] was 39.5(±1.9) %, the “Inhibition of the root growth … (IRG, %)” value [6, 11] was 57.5(±1.5) % and the “Inhibition of the root growth … (IRG, %)” value [6, 12] was 67.7(±1.1) %. For the same molecule, the “Inhibition of the root growth … (IRG, %)” value [6, 13] was 74.5(±1.2) %, the “Inhibition of the root growth … (IRG, %)” value [6, 14] was 83.0(±0.7) % and the “Inhibition of the root growth … (IRG, %)” value [6, 15] was 88.2(±0.6) %. The “Inhibition of the root growth … (IRG, %)” value [6, 16] was 90.1(±0.8) % and the “Inhibition of the root growth … (IRG, %)” value [6, 17] was 92.0(±0.7) %.

In the case of C[N+](C)(C)CCO.N[C@@H](CCC(=O)O)C(=O)[O-] [[Cho][Glu]], the IC50 [3] is given as 0.43 % (v/v).
